Laboratory results published in patent US20150266857A1, “NOVEL 3-INDOL SUBSTITUTED DERIVATIVES, PHARMACEUTICAL COMPOSITIONS AND METHODS FOR USE” (iTeos Therapeutics, priority 2014, published 2015).
pIC50: −log10 of the molar value. Where a name gives a salt, the structure may show the parent alone.

biological target: T1, human recombinant TDO2 enzyme (Homo sapiens, UniProt P48775); test: Assay for TDO2 enzymatic activity determination; type: biochemical; conditions: human recombinant TDO2, L-Trp 1 mM, kynurenine absorbance at 480 nm
T1 construct: made in house
T1 sequence (P48775 whole entry): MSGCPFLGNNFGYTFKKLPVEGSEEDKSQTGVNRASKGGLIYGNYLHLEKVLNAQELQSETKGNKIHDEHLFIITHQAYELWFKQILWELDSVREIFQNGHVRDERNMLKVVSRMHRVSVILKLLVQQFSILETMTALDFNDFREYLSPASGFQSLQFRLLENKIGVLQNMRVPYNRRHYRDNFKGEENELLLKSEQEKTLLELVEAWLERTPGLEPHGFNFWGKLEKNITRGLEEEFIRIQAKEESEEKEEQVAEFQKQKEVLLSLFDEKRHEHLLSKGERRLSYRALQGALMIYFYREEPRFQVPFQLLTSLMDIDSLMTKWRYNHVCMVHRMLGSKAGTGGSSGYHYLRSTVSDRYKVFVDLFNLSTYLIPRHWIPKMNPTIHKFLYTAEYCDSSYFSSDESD
Description: To measure the TDO2 activity, the procedure described in Dolusic et al. J. Med. Chem.; 2011, 54, […] was adapted: the reaction mixture contained (final concentrations) potassium phosphate buffer (50 mM, pH 7.5), ascorbic acid (0.25 M), methylene blue (0.125 μM), catalase (40 units/mL, from bovine liver, Sigma), and human recombinant TDO2 enzyme (prepared as described in Dolusic et al. J. Med. Chem.; 2011, 54, 5320-5334; 0.9 μg) without or with the compounds of the present invention at the indicated concentrations (total volume 112.5 μL). The reaction was initiated by the addition of 37.5 μL of L-Trp (final concentration 1 mM) at room temperature. The reaction was conducted at room temperature during one hour and stopped by the addition of 30 μL of 30% (w/v) trichloroacetic acid.
To convert N-formylkynurenine into kynurenine, the reaction mixture was incubated at 65° C. for 30 min. Then 150 μL of the reaction mixture was mixed with 120 μL of 2.5% (w/v) 4-(dimethylamino)-benzaldehyde in acetic acid and incubated for 5 min at room temperature. Kynurenine concentrations were determined by measuring the absorbance at 480 nm. A standard curve was made with pure kynurenine. The TDO activity was measured as described above using ten serial concentrations of the compounds of the present invention. Data were fitted using the Prism™ software (GraphPad Software, Inc.) using standard parameters.

`NC(=O)Cn1ncc2ccc(-c3c[nH]c4cc(F)ccc34)cc21` [Compound 2, 2-(6-(6-fluoro-1H-indol-3-yl)-1H-indazol-1-yl)acetamide] and `NC(=O)CCn1ncc2ccc(-c3c[nH]c4cc(F)ccc34)cc21` [Compound 5, 3-(6-(6-fluoro-1H-indol-3-yl)-1H-indazol-1-yl)propanamide] are within 0.2 log units of each other in pIC50: 6.02 for the first, 5.93 for the second.

Going from `Fc1ccc2c(-c3ccc4cnn(CC5CCNCC5)c4c3)c[nH]c2c1` [Compound 3, 6-(6-fluoro-1H-indol-3-yl)-1-(piperidin-4-ylmethyl)-1H-indazole hydrochloride] to `Fc1ccc2c(-c3ccc4c(cnn4CC4CCNCC4)c3)c[nH]c2c1` [Compound 10, 5-(6-fluoro-1H-indol-3-yl)-1-(piperidin-4-ylmethyl)-1H-indazole], the pIC50 rises from 5.67 to 6.37 (0.70 log units).

Going from `CC(=O)N1CCC(Cn2ncc3ccc(-c4c[nH]c5cc(F)ccc45)cc32)CC1` [Compound 4, 1-(4-((6-(6-fluoro-1H-indol-3-yl)-1H-indazol-1-yl)methyl)piperidin-1-yl)ethanone] to `CC(=O)N1CCC(Cn2ncc3cc(-c4c[nH]c5cc(F)ccc45)ccc32)CC1` [Compound 11, 1-(4-((5-(6-fluoro-1H-indol-3-yl)-1H-indazol-1-yl)methyl)piperidin-1-yl)ethanone], the pIC50 rises from 5.50 to 6.17 (0.67 log units). The second is the more potent here.

Going from `Fc1ccc2c(-c3ccc4cnn(C5CCNCC5)c4c3)c[nH]c2c1` [Compound 6, 6-(6-fluoro-1H-indol-3-yl)-1-(piperidin-4-yl)-1H-indazole] to `Fc1ccc2c(-c3ccc4c(cnn4C4CCNCC4)c3)c[nH]c2c1` [Compound 13, 5-(6-fluoro-1H-indol-3-yl)-1-(piperidin-4-yl)-1H-indazole], the pIC50 rises from 5.12 to 6.39 (1.27 log units).

First: CC(=O)N1CCC(n2ncc3ccc(-c4c[nH]c5cc(F)ccc45)cc32)CC1 [Compound 7, 1-(4-(6-(6-fluoro-1H-indol-3-yl)-1H-indazol-1-yl)piperidin-1-yl)ethanone]
Second: CC(=O)N1CCC(n2ncc3cc(-c4c[nH]c5cc(F)ccc45)ccc32)CC1 [Compound 14, 1-(4-(5-(6-fluoro-1H-indol-3-yl)-1H-indazol-1-yl)piperidin-1-yl)ethanone]
The pIC50 of the first is 0.79 log units lower: 4.86 for the first, 5.65 for the second.

First: Fc1ccc2c(-c3ccc4[nH]ncc4c3)c[nH]c2c1 [Compound 8, 5-(6-fluoro-1H-indol-3-yl)-1H-indazole]
Second: NC(=O)Cn1cc2ccc(-c3c[nH]c4cc(F)ccc34)cc2n1 [Compound 15, 2-(6-(6-fluoro-1H-indol-3-yl)-2H-indazol-2-yl)acetamide]
The pIC50 of the first is 0.28 log units higher: 6.22 for the first, 5.94 for the second. The first is the more potent here.

`CC(=O)N1CCC(Cn2cc3ccc(-c4c[nH]c5cc(F)ccc45)cc3n2)CC1` [Compound 16, 1-(4-((6-(6-fluoro-1H-indol-3-yl)-2H-indazol-2-yl)methyl)piperidin-1-yl)ethanone] and `CC(=O)N1CCC(n2cc3ccc(-c4c[nH]c5cc(F)ccc45)cc3n2)CC1` [Compound 19, 1-(4-(6-(6-fluoro-1H-indol-3-yl)-2H-indazol-2-yl)piperidin-1-yl)ethanone] are within 0.2 log units of each other in pIC50: 5.70 for the first, 5.66 for the second.

`NC(=O)CCn1cc2ccc(-c3c[nH]c4cc(F)ccc34)cc2n1` [Compound 17, 3-(6-(6-fluoro-1H-indol-3-yl)-2H-indazol-2-yl)propanamide] and `Fc1ccc2c(-c3ccc4cn(C5CCNCC5)nc4c3)c[nH]c2c1` [Compound 18, 6-(6-fluoro-1H-indol-3-yl)-2-(piperidin-4-yl)-2H-indazole] are within 0.2 log units of each other in pIC50: 6.03 for the first, 6.02 for the second.

biological target: T2, human glioblastoma A172 cells, naturally expressing hTDO2 (Homo sapiens, UniProt P48775); test: Cellular assay for TDO2 activity, A172 cells; type: cell-based; conditions: overnight incubation, kynurenine in supernatant
T2 construct: human glioblastoma A172 cells, naturally expressing hTDO2; endogenous in cells; host or cells: human glioblastoma A172 cells (ATCC CRL-1620)
T2 sequence (P48775 whole entry): as above
Description: The compounds of formula I inhibit the activity of human TDO2 in cells that constitutively express TDO2, such as A172 cells. A172 is a cell line derived from human brain glioblastoma cells. The cells are available from the American Type Culture Collection (ATCC®) as CRL-1620™
The assay (adapted from Pilotte L et al., Proc Natl Acad Sci USA, 2012, 109(7), 2497-502) was performed in 96-well flat bottom plates seeded with human glioblastoma A172 cells, naturally expressing hTDO2 (prepared as described in Tilman et al., Mol Cancer, 2007, 17(6), 80), at a concentration of 1.25×10^4 cells/well in a final volume of 200 μL. To determine TDO, the cells were incubated overnight at 37° C. at 5% CO2 in IMDM (Invitrogen) supplemented with 2% FBS and 2% penicillin/streptomycin in the presence of the compounds of the present invention, at different concentrations.
The plates were then centrifuged 5 min at 1000 rpm, and 100 μL of the supernatant were collected in a conical plate, 30 uL of TCA 30% were added and a further centrifugated at 3000×g for 10 minutes. 100 μL of the supernatant were collected in a flat bottomed plate and 100 μL of 2% (w/v) 4-(dimethylamino)-benzaldehyde in acetic acid and incubated for 5 min at room temperature. Kynurenine concentrations were determined by measuring the absorbance at 480 nm. A standard curve was made with pure kynurenine. The TDO activity was measured as described above using ten serial concentrations of the compounds of the present invention. Data were fitted using the Prism™ software (GraphPad Software, Inc.) using standard parameters.

Going from `Clc1ccc2[nH]cc(-c3ccc4ocnc4c3)c2c1` [Compound 121, 5-(5-chloro-1H-indol-3-yl)benzo[d]oxazole] to `CS(=O)(=O)NCc1nc2ccc(-c3c[nH]c4cc(Cl)ccc34)cc2o1` [Compound 127, N-((6-(6-chloro-1H-indol-3-yl)benzo[d]oxazol-2-yl)methyl)methanesulfonamide], the pIC50 falls from 5.75 to 5.42 (0.33 log units). The first is the more potent here.

First: CN1CCC(Cc2nc3ccc(-c4c[nH]c5cc(F)ccc45)cc3o2)CC1 [Compound 125, 6-(6-fluoro-1H-indol-3-yl)-2-((1-methylpiperidin-4-yl)methyl)benzo[d]oxazole]
Second: OC1CCN(CCc2nc3ccc(-c4c[nH]c5cc(F)ccc45)cc3o2)CC1 [Compound 140, 1-(2-(6-(6-fluoro-1H-indol-3-yl)benzo[d]oxazol-2-yl)ethyl)piperidin-4-ol]
The pIC50 of the first is 0.48 log units higher: 6.83 for the first, 6.35 for the second.

`CS(=O)(=O)NC1CCN(CCS(=O)(=O)NCc2nc3ccc(-c4c[nH]c5cc(F)ccc45)cc3o2)CC1` [Compound 126, N-((6-(6-fluoro-1H-indol-3-yl)benzo[d]oxazol-2-yl)methyl)-2-(4-(methylsulfonamido)piperidin-1-yl)ethanesulfonamide] and `Fc1ccc2c(-c3ccc4nc(CCN5CC6(CNC6)C5)oc4c3)c[nH]c2c1` [Compound 143, 2-(2-(2,6-diazaspiro[3.3]heptan-2-yl)ethyl)-6-(6-fluoro-1H-indol-3-yl)benzo[d]oxazole] are within 0.2 log units of each other in pIC50: 6.08 for the first, 6.21 for the second.

Going from `O=C1NC(=O)C(Cc2nc3ccc(-c4c[nH]c5cc(F)ccc45)cc3o2)N1` (stereo not drawn) [Compound 129, 5-((6-(6-fluoro-1H-indol-3-yl)benzo[d]oxazol-2-yl)methyl)imidazolidine-2,4-dione] to `C[C@@H]1CN(CCc2nc3ccc(-c4c[nH]c5cc(F)ccc45)cc3o2)C[C@H](C)N1` [Compound 139, 2-(2-(cis-3,5-dimethylpiperazin-1-yl)ethyl)-6-(6-fluoro-1H-indol-3-yl)benzo[d]oxazole], the pIC50 falls from 6.65 to 6.42 (0.23 log units). The first is the more potent here.

Compared with `NC(=O)Cn1c(=O)oc2cc(-c3c[nH]c4ccc(F)cc34)ccc21` [Compound 131, 2-(6-(5-fluoro-1H-indol-3-yl)-2-oxobenzo[d]oxazol-3(2H)-yl)acetamide], `O=c1oc2cc(-c3c[nH]c4cc(F)ccc34)ccc2n1C1CCNCC1` [Compound 136, 6-(6-fluoro-1H-indol-3-yl)-3-(piperidin-4-yl)benzo[d]oxazol-2(3H)-one] is 0.87 log units higher in pIC50: 5.62 for the first, 6.49 for the second. The second is the more potent here.

Going from `O=C1NC(=O)c2cc(-c3c[nH]c4cc(F)ccc34)ccc21` [Compound 132, 5-(6-fluoro-1H-indol-3-yl)isoindoline-1,3-dione] to `CN1C(=O)c2cc(-c3c[nH]c4cc(F)ccc34)ccc2S1(=O)=O` [Compound 138, 5-(6-fluoro-H-indol-3-yl)-2-methylbenzo[d]isothiazol-3(2H)-one 1,1-dioxide], the pIC50 falls from 6.71 to 5.43 (1.28 log units). The first is the more potent here.

First: Fc1ccc2c(-c3ccc4c(c3)CNC4)c[nH]c2c1 [Compound 133, 6-fluoro-3-(isoindolin-5-yl)-1H-indole]
Second: O=S1(=O)NCc2ccc(-c3c[nH]c4cc(F)ccc34)cc21 [Compound 134]
The pIC50 of the first is 0.42 log units higher: 6.53 for the first, 6.11 for the second. The first is the more potent here.

Compared with `O=S1(=O)NCc2cc(-c3c[nH]c4cc(F)ccc34)ccc21` [Compound 135, 5-(6-fluoro-1H-indol-3-yl)-2,3-dihydrobenzo[d]isothiazole 1,1-dioxide], `Fc1ccc2c(-c3ccc4ccoc4c3)c[nH]c2c1` [Compound 146, 3-(benzofuran-6-yl)-6-fluoro-1H-indole] is 0.85 log units lower in pIC50: 7.13 for the first, 6.28 for the second.

Compared with `Cc1nc2cc(CO)c(-c3c[nH]c4cc(F)ccc34)cc2o1` [Compound 137, (6-(6-fluoro-1H-indol-3-yl)-2-methylbenzo[d]oxazol-5-yl)methanol], `C[C@@H]1CN(CCc2nc3ccc(-c4c[nH]c5cc(F)ccc45)cc3o2)C[C@@H](C)N1` [Compound 142, (+)-2-(2-((3R,5R)-3,5-dimethylpiperazin-1-yl)ethyl)-6-(6-fluoro-1H-indol-3-yl)benzo[d]oxazole] is 1.81 log units higher in pIC50: 4.51 for the first, 6.32 for the second.

First: C[C@H]1CN(CCc2nc3ccc(-c4c[nH]c5cc(F)ccc45)cc3o2)C[C@H](C)N1 [Compound 144, (−)-2-(2-((3S,5S)-3,5-dimethylpiperazin-1-yl)ethyl)-6-(6-fluoro-1H-indol-3-yl)benzo[d]oxazole]
Second: O=C(O)C1CN(CCc2nc3ccc(-c4c[nH]c5cc(F)ccc45)cc3o2)CCN1 (stereo not drawn) [Compound 145, 4-(2-(6-(6-fluoro-1H-indol-3-yl)benzo[d]oxazol-2-yl)ethyl)piperazine-2-carboxylic acid]
The pIC50 of the first is 1.75 log units higher: 6.34 for the first, 4.59 for the second.
